Reference: patent publication US20230013925A1, “Moraxella Treatment Using Cannabinoids” (BOTANIX PHARMACEUTICALLS LIMITED, priority 2019, published 2023)
Converted amounts (≈) assume the structure as drawn. Where two headings read alike, the source gives them in different places.

Test system: Moraxella catarrhalis
Assay: Broth microdilution MIC testing (CLSI)
Type: cell-based
Settings: for MIC: read-out: MIC (lowest concentration of drug that inhibited visible growth)
Procedure: In this study, to evaluate the spectrum of activity, cannabidiol (CBD) was profiled against Moraxella. Testing was conducted following guidelines recommended by the Clinical and Laboratory Standards Institute (CLSI, 1-4), using vancomycin, meropenem, levofloxacin, and gentamicin as comparators for testing aerobic bacteria.
Test agents were supplied by Micromyx. Stock solutions of all compounds were prepared on the first day of testing at 101× the highest test concentration using solvents recommended by CLSI. CBD was prepared fresh on each of testing.
Prior to testing, Moraxella were streaked from frozen vials onto Trypticase Soy Agar (TSA) with 5% sheep blood (Becton Dickinson [BD]; Sparks, Md.; Lot No. 9192895), and incubated at 35° C. overnight.
Cation-adjusted Mueller-Hinton broth (CAMHB; BD; Lot No. 8190586) was used for MIC testing.
MIC values were determined using a broth microdilution procedure described by CLSI (1-4). Automated liquid handlers (Multidrop 384, Labsystems, Helsinki, Finland; Biomek 2000 and Biomek FX, Beckman Coulter, Fullerton, Calif.) were used to conduct serial dilutions and liquid transfers.
To prepare the drug mother plates, which would provide the serial drug dilutions for the replicate daughter plates, the wells of columns 2 through 12 of standard 96-well microdilution plates (Costar 3795) were filled with 150 μl of the designated diluent for each row of drug. The test article and comparator compounds (300 μl at 101× the highest concentration to be tested) were dispensed into the appropriate wells in column 1. The Biomek 2000 was then used to make 2-fold serial dilutions in the mother plates from column 1 through column 11. The wells of column 12 contained no drug and served as the organism growth control wells for the assay.
The daughter plates were loaded with 190 μL per well of the appropriate test medium for the tested organism using the Multidrop 384. The daughter plates were completed on the Biomek FX instrument which transferred 2 μL of drug solution from each well of a mother plate to the corresponding well of each daughter plate in a single step.
A standardized inoculum of each test organism was prepared per CLSI methods (1-4). The inoculum for each organism was dispensed into sterile reservoirs divided by length (Beckman Coulter), and the Biomek 2000 was used to inoculate the plates. Daughter plates were placed on the Biomek 2000 work surface in reverse orientation so that inoculation took place from low to high drug concentration. Plates were inoculated with 10 μL of the inoculum resulting in a final cell density of approximately 5×10^5 CFU/mL per well.
The plates for testing of Moraxella were stacked 3 to 4 high, covered with a sterile lid, and incubated at 35° C. for the time periods specified in CLSI (1-4). Plates were incubated for approximately 16 to 20 hr. Following incubation, the microplates were removed from the incubator and viewed from the bottom using a plate viewer. […] The MIC was read and recorded as the lowest concentration of drug that inhibited visible growth of the organism.

[1] = Moraxella catarrhalis isolate MMX 3782, CAMHB, 35° C., approximately 16 to 20 hr

C=C(C)C1CCC(C)=CC1c1c(O)cc(CCCCC)cc1O (centres unmarked) [CBD, 2-[3-methyl-6-(1-methylethenyl)-2-cyclohexen-1-yl]-5-pentyl-1,3-benzenediol]
MIC [1]: 1 µg/mL (≈ 3.18 µM)

C[C@H]1COc2c(N3CCN(C)CC3)c(F)cc3c(=O)c(C(=O)O)cn1c23 [LVX, levofloxacin]
MIC [1]: 0.03 µg/mL (≈ 0.083 µM)

C[C@@H](O)[C@H]1C(=O)N2C(C(=O)O)=C(S[C@@H]3CN[C@H](C(=O)N(C)C)C3)[C@H](C)[C@H]12 [MEM, meropenem]
MIC [1]: ≤ 0.03 µg/mL

CN[C@H](CC(C)C)C(=O)N[C@H]1C(=O)N[C@@H](CC(N)=O)C(=O)N[C@H]2C(=O)N[C@H]3C(=O)N[C@H](C(=O)N[C@H](C(=O)O)c4cc(O)cc(O)c4-c4cc3ccc4O)[C@H](O)c3ccc(c(Cl)c3)Oc3cc2cc(c3O[C@@H]2O[C@H](CO)[C@@H](O)[C@H](O)[C@H]2O[C@H]2C[C@](C)(N)[C@H](O)[C@H](C)O2)Oc2ccc(cc2Cl)[C@H]1O [VAN, vancomycin]
MIC (Moraxella catarrhalis): 32 µg/mL (≈ 22.1 µM)

gentamicin
MIC (lowest concentration of drug that inhibited visible growth) [1]: 0.25 µg/mL
